This is an account of results in patent publication EP4692105A1, “CYCLIC POLYPEPTIDE COMPOUND AND USE THEREOF” (Bivision Pharmaceuticals, Inc, priority 2023, dated 2024).

One assay has as its target T1, FAP protein (Homo sapiens, UniProt Q12884).
T1 construct: purchased Sinobiological
T1 sequence (Q12884 1-760): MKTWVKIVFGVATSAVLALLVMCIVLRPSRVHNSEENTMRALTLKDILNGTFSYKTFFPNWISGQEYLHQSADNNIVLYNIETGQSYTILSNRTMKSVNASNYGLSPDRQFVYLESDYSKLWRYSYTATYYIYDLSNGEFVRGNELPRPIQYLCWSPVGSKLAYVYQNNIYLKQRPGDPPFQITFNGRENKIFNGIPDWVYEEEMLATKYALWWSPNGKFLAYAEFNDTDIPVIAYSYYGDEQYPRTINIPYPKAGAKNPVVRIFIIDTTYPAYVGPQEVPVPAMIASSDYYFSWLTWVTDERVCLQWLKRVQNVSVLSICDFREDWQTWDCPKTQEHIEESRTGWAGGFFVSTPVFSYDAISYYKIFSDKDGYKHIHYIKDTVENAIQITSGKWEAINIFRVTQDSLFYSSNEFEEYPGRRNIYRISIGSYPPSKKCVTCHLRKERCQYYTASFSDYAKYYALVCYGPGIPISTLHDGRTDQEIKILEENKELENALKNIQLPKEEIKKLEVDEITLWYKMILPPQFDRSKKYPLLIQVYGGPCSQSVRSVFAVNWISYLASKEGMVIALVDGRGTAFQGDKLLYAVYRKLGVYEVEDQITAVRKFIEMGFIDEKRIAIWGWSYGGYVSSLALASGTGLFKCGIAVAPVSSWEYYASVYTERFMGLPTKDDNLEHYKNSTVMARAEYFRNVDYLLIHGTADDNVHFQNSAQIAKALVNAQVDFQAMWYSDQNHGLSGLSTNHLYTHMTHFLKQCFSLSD
The assay is described as follows: Biacore (SPR) test of compound affinity to FAP protein. In kind it is binding. The note with it: for pKD (FAP): Biacore 8K, SA chip, 15 °C, single cycle, 1:1 binding model, pKD = -LogKD. On the procedure: The Biacore 8K (Cytiva) instrument was used to detect ligand binding of the FAP protein (Sinobiological). FAP protein was captured on the SA chip. Prior to ligand immobilization (flow paths 1 and 2, flow rate of 10 µL/min), FAP protein (10 µg/mL, flow rate of 5 µL/min, injection time of 600 s) was immobilized on flow path 2 using running buffer. The sensor surface was conditioned by injecting 1M NaCl three consecutive times in 50 mM NaOH. After each ligand injection, additional cleaning was performed using isopropanol in 1M NaCl and 50 mM NaOH (flow path 1 and 2, flow rate of 10 µL/min, injection time of 60 s).
The tested compound was dissolved in 100% dimethyl sulfoxide and diluted to 10 mM, then diluted in the assay buffer (PBS, pH 7.4, 1 mM TCEP ([…]), 0.05% P20, 2% dimethyl sulfoxide) to an appropriate maximum concentration. The analyte was run under the following conditions: analysis temperature of 15 °C, analysis step = all set to LMW kinetics; cycle type = single cycle (contact time of 90 s, dissociation time of 1800 s, flow rate of 30 µL/min, flow channels 1 and 2); channel detection = 2-1. Data was evaluated using the Biacore Insight Evaluation Software, and the data were fitted to a 1:1 binding model.
The Biacore results are shown in Table 2 below: pKD = -LogKD, where KD is the binding affinity of the compound to the FAP protein as measured by Biacore.

Assay [1] has as its target T2, prolyl oligopeptidase (PREP) (Homo sapiens, UniProt P48147).
T2 sequence (P48147 1-710): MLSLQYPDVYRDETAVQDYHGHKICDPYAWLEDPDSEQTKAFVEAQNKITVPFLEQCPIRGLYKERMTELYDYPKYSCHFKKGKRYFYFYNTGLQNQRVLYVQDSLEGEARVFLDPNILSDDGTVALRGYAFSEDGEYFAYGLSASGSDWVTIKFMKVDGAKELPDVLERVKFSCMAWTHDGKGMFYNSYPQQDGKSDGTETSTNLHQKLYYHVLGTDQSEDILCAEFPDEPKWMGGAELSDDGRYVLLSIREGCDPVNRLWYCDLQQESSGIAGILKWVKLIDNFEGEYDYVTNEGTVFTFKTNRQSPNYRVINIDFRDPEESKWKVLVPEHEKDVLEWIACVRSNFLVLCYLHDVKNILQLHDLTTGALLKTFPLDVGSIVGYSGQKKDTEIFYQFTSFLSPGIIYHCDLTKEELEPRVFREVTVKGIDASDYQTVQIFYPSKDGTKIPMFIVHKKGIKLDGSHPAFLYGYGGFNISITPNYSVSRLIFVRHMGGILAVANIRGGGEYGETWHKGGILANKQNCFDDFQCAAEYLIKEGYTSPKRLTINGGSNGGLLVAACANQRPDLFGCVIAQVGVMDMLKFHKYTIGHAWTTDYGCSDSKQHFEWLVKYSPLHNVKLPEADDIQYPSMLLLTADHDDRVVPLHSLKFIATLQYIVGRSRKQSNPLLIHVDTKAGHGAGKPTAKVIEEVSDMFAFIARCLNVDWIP
The experiment in a line: Protease inhibition selectivity assay (fluorogenic substrate Z-Gly-Pro-AMC), PREP. In kind it is biochemical. To be noted: recombinant human PREP 0.6 nM, pH 8.0. On the procedure: (§1) The specificity of the synthesized compounds for recombinant human dipeptidyl peptidase IV (DPPIV), fibroblast activation protein (FAP), or prolyl oligopeptidase (PREP) was expressed by their half-maximal inhibitory concentration (IC50) against the proteases. […] It was incubated at room temperature for 10 minutes, with the plate being shaken for the first two minutes. • 6) 10 µL of the 20x substrate prepared in step 3 was added to each well and incubated at room temperature for 15 minutes, with the plate being shaken for the first two minutes. • 7) Fluorescence was read at λex:380 and λem:460.

The target in assay [2] is dipeptidyl peptidase IV (DPPIV) (Homo sapiens, UniProt P27487). The experiment in a line: Protease inhibition selectivity assay (fluorogenic substrate Gly-Pro-AMC), DPPIV. In kind it is biochemical. To be noted: recombinant human DPPIV 0.1 nM, pH 7.5; read-out: pIC50 (DPPIV) (converted). On the procedure:
as §1

Assay [3] addresses T3, fibroblast activation protein (FAP) (Homo sapiens, UniProt Q12884).
T3 sequence (Q12884 1-760): T1 sequence (Q12884 1-760)
The assay is described as follows: Protease inhibition selectivity assay (fluorogenic substrate Z-Gly-Pro-AMC), FAP. To be noted: recombinant human FAP 1.2 nM, pH 7.5. In kind it is biochemical. On the procedure:
as §1

Ends that are not written are not given here.

dipeptidyl peptidase IV (DPPIV), sequence (P27487 whole entry): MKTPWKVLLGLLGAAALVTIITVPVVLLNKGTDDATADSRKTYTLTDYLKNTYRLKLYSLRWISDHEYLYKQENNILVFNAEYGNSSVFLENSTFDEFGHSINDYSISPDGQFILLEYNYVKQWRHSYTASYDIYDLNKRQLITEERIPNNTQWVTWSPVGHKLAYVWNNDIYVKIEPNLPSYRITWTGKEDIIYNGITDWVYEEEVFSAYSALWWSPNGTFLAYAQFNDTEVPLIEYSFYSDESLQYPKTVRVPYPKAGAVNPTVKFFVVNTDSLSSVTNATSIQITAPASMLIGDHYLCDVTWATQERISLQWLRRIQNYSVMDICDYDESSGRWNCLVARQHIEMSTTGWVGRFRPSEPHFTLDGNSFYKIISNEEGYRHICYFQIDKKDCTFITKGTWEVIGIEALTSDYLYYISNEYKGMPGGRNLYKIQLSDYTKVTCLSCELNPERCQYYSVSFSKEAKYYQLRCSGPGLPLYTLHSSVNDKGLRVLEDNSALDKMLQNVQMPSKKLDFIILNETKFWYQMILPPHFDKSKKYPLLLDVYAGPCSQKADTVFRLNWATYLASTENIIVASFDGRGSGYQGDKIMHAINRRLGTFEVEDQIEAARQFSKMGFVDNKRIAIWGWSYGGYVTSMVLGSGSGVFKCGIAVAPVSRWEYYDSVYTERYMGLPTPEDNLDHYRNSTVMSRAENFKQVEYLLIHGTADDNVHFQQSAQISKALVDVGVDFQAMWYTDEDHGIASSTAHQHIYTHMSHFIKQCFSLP

In the case of “Hex[Cys(3MeBn)-hhy44(NH)-CO-Pro-Thr-Gln-Phe-Cys]-Lys-(DOTA)-OH (PTQFC-{K(DOTA)-OH}; not fully specified (N-terminus, bridges); also: cyclised within brackets, ring closure not given here) [JHDC07]”, in the assay with FAP protein, the “pKD (FAP)” value is given as “B (B: 7<pKD<8)”.

For the compound `CCCCCC(=O)N[C@H]1CSCc2cc(CSCCNC(=O)CN3CCN(CC(=O)O)CCN(CC(=O)O)CCN(CC(=O)O)CC3)cc(c2)CSC[C@@H](C(=O)O)NC(=O)[C@H](Cc2ccccc2)NC(=O)[C@H](CCC(N)=O)NC(=O)[C@H]([C@@H](C)O)NC(=O)[C@@H]2CCCN2C(=O)[C@@H]2CCCN2C1=O` [FAP-2286], the IC50 in assay [1] is above 1 µM; in assay [2] it was above 1 µM; in assay [3], below 0.01 µM. The Kd at FAP protein (read-out: pKD (FAP) (converted)) is 0.01 to 0.1 µM.

Regarding “Oct[Cys(tMeBn-DOTA-AET)-hhy39-Pro-Thr-Gln-hhy34-Cys]-Glu-(Arg-Gly-Asp(NH2))-OH [JHDC21]”, the “pKD (FAP)” value at FAP protein was “B (B: 7<pKD<8)”.
